Test [1] deals with T1, human CRF2α receptor (Homo sapiens, UniProt Q13324).
T1 construct: expressed in transfected cells; host or cells: TeloHEAC
T1 sequence (Q13324 1-411): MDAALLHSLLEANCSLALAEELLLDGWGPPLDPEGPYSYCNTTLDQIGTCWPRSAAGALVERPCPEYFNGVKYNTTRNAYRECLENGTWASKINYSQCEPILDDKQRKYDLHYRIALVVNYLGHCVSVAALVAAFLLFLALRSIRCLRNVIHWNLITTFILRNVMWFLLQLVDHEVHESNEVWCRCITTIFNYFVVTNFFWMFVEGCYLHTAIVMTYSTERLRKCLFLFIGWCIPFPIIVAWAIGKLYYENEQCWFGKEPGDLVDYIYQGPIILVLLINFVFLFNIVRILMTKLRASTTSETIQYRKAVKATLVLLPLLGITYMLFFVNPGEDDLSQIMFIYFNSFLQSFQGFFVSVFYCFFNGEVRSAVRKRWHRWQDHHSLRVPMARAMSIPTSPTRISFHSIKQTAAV
Nature of the test: cAMP agonism at human CRF2 α receptor in TeloHEAC cells (Example 7). To be noted: cAMP HTRF, TeloHEAC cells stably expressing human CRF2 α. The test is classed as cell-based. In short, it runs like this: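 HTRF ratio 665/620 nm, read 1 h after lysis reagents, reports cAMP. Cells: thawed stocks, 2000/well, 30 min RT with compound in HBSS, 20 mM HEPES, 0 or 0.1% HSA, 2 mM IBMX. Activity normalised to UCN2 1000 nM = 100%; EC50 from half-maximal activation.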
A general note: Time-resolved FRET reads energy transfer from a long-lived donor to a nearby acceptor.

Test [2] deals with T2, CRF1R receptor (Homo sapiens, UniProt P34998).
T2 construct: host or cells: CHO-K1 clone 2
T2 sequence (P34998 24-415): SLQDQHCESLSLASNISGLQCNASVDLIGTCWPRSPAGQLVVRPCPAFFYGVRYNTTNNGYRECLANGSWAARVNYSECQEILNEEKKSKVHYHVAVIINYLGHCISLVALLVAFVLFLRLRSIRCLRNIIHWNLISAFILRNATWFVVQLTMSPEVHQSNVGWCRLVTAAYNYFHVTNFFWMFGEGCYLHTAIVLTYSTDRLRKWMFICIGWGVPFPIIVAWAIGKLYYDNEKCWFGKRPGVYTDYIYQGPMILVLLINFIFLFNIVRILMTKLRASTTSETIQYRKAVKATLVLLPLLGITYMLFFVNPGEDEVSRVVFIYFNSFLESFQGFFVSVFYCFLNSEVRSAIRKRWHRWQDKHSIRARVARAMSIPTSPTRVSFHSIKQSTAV
Nature of the test: cAMP activity at anti-target CRF1R, CHO-K1 cell line clone 2 (Example 19.10). In kind it is cell-based. To be noted: CRF1R CHO-K1 clone 2; for EC50: 0% HSA, read-out: EC50 [nM] 0% HSA; for Emax: 100% = Sauvagine at 100 nM. In short, it runs like this: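 A CRF1R-overexpressing CHO-K1 line (clone 2) was grown in F12/10% FBS/G418 and frozen in aliquots before use. The cAMP assay followed the preceding procedure, with 100% activation defined by Sauvagine at 100 nM.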

[3] abbreviates: 0% HSA, read-out: EC50 [nM], 0% HSA.

Where two headings read alike, the source gives them in different places. Starred links: 1 amine or outer side, 2 acyl side, 3 side chain; linkers in the order of their positions; H or OH if unused. Non-standard residues stand in square brackets, D forms with d. Residues, ends and D or L forms follow the SMILES beside them. Groups on a side chain read outwards from the residue. *: point of attachment. C18 diacid = O=C(O)CCCCCCCCCCCCCCCCC(=O)*; γGlu = O=C(O)[C@H](CCC(=O)[*:2])N[*:1]; AEEA = NCCOCCOCC(=O)O; Aib = CC(C)(N)C(=O)O

Regarding `CC[C@H](C)[C@H](N)C(=O)N[C@H](C(=O)N[C@@H](CC(C)C)C(=O)N[C@@H](CO)C(=O)N[C@@H](CC(C)C)C(=O)N[C@@H](CC(=O)O)C(=O)N[C@H](C(=O)N1CCC[C@H]1C(=O)N[C@H](C(=O)N[C@@H](CCCCN)C(=O)N[C@@H](CC(C)C)C(=O)N[C@@H](CCCCNC(=O)COCCOCCNC(=O)COCCOCCNC(=O)CC[C@H](NC(=O)CCCCCCCCCCCCCCCCC(=O)O)C(=O)O)C(=O)N[C@@H](CCC(N)=O)C(=O)N[C@H](C(=O)N[C@@H](CC(C)C)C(=O)N[C@@H](CC(C)C)C(=O)N[C@@H](CCCCN)C(=O)N[C@@H](CCC(N)=O)C(=O)N[C@@H](CCC(=O)O)C(=O)N[C@@H](CCCNC(=N)N)C(=O)N[C@@H](CCC(N)=O)C(=O)N[C@@H](CCCCN)C(=O)N[C@@H](CCCCN)C(=O)N[C@@H](CCC(N)=O)C(=O)N[C@@H](CCCNC(=N)N)C(=O)N[C@@H](CCC(=O)O)C(=O)N[C@@H](CCC(N)=O)C(=O)N[C@@H](C)C(=O)N[C@@H](CCCCN)C(=O)N[C@H](C(=O)N[C@@H](CC(N)=O)C(=O)NC(C)(C)C(=O)N[C@@H](CCC(N)=O)C(=O)N[C@H](C(=O)N[C@@H](CC(C)C)C(=O)N[C@@H](C)C(=O)N[C@@H](CCC(N)=O)C(=O)N[C@H](C(N)=O)C(C)C)[C@@H](C)CC)[C@@H](C)O)[C@@H](C)CC)[C@@H](C)CC)C(C)C)C(C)C` [compound 89] (H-IVLSLDVPIKLK([AEEA-AEEA-γGlu-C18 diacid])QILLKQERQKKQREQAKTN[Aib]QILAQV-NH2), the EC50 (commonly the concentration at which the effect is half-maximal) in test [1] (setting [3]) is 0.3 nM; in test [1] (0.1% HSA, read-out: EC50 [nM], 0.1% HSA), 15.6 nM; in test [2] it was more than 100 nM. Moreover, the Emax (usually the size of the effect at its maximum, as opposed to the concentration needed) in test [2] was found to be 3.7%.
Regarding `CC[C@H](C)[C@H](N)C(=O)N[C@H](C(=O)N[C@@H](CC(C)C)C(=O)N[C@@H](CO)C(=O)N[C@@H](CC(C)C)C(=O)N[C@@H](CC(=O)O)C(=O)N[C@H](C(=O)N1CCC[C@H]1C(=O)N[C@H](C(=O)N[C@@H](CCCCN)C(=O)N[C@@H](CC(C)C)C(=O)N[C@@H](CCCCNC(=O)COCCOCCNC(=O)COCCOCCNC(=O)CC[C@H](NC(=O)CCCCCCCCCCCCCCCCC(=O)O)C(=O)O)C(=O)N[C@@H](CCC(N)=O)C(=O)N[C@H](C(=O)N[C@@H](CC(C)C)C(=O)N[C@@H](CC(C)C)C(=O)N[C@@H](CCCCN)C(=O)N[C@@H](CCC(N)=O)C(=O)N[C@@H](CCC(=O)O)C(=O)N[C@@H](CCCNC(=N)N)C(=O)N[C@@H](CCC(N)=O)C(=O)N[C@@H](CCCCN)C(=O)N[C@@H](CCCCN)C(=O)N[C@@H](CCC(=O)O)C(=O)N[C@@H](CCCNC(=N)N)C(=O)N[C@@H](CCC(=O)O)C(=O)N[C@@H](CCC(N)=O)C(=O)N[C@@H](C)C(=O)N[C@@H](CCC(=O)O)C(=O)N[C@H](C(=O)N[C@@H](CC(N)=O)C(=O)N[C@@H](CCCCN)C(=O)N[C@@H](CCC(N)=O)C(=O)N[C@H](C(=O)N[C@@H](CC(C)C)C(=O)N[C@@H](C)C(=O)N[C@@H](CCC(N)=O)C(=O)N[C@H](C(N)=O)C(C)C)[C@@H](C)CC)[C@@H](C)O)[C@@H](C)CC)[C@@H](C)CC)C(C)C)C(C)C` [compound 96] (H-IVLSLDVPIKLK([AEEA-AEEA-γGlu-C18 diacid])QILLKQERQKKEREQAETNKQILAQV-NH2; N-terminus assumed), the EC50 is 0.38 nM in test [1] (setting [3]) and more than 100 nM in test [2]. The same compound had an Emax in test [2] of 2.3%.

The values above are taken from US12679878B2, “CRF2 receptor agonists and their use in therapy” (SANOFI, priority 2020, dated 2026).
